Data from BindingDB's records for doi:10.1016/j.bmcl.2016.12.057 (University of Auckland, 2017).
pIC50: −log10 of the molar value.

Assay: Inhibition of recombinant perforin (unknown origin) assessed as decrease in lysis of 51Cr-labelled human Jurkat cells by measuring 51Cr release preincubated for 30 mins followed by cell line addition measured after 4 hrs in presence of 0.1% BSA by gamma counting method

| Compound | pIC50 |
| --- | --- |
| O=C1NCCc2ccc(-c3ccc(-c4cncc(NS(=O)(=O)c5ccc(F)cc5F)c4)s3)cc21 | < 4.70 |
| CN1CCc2cc(-c3ccc(-c4cncc(NS(=O)(=O)c5ccc(F)cc5F)c4)s3)ccc2C1=O | < 4.70 |
| O=C1NCCc2cc(-c3ccc(-c4cncc(NS(=O)(=O)c5ccc(F)cc5F)c4)s3)ccc21 | < 4.70 |

Now from value to compound:

| pIC50 | Compound |
| --- | --- |
| < 4.70 | CN1Cc2cc(-c3nc(-c4cncc(NS(=O)(=O)c5ccc(F)cc5F)c4)cs3)ccc2C1=O |
| < 4.70 | CC1c2cc(-c3ccc(-c4cncc(NS(=O)(=O)c5ccc(F)cc5F)c4)s3)ccc2C(=O)N1C (stereo not given) |
